From ChEMBL document CHEMBL1138848, “Tetrahydrobiopterin binding to aromatic amino acid hydroxylases. Ligand recognition and specificity” (J Med Chem, 2004)

Columns and labels:
[1] = molecular target: T1, Phenylalanine-4-hydroxylase (Homo sapiens, UniProt P00439); test: Binding affinity for human phenylalanine hydroxylase
T1 sequence (P00439 whole entry): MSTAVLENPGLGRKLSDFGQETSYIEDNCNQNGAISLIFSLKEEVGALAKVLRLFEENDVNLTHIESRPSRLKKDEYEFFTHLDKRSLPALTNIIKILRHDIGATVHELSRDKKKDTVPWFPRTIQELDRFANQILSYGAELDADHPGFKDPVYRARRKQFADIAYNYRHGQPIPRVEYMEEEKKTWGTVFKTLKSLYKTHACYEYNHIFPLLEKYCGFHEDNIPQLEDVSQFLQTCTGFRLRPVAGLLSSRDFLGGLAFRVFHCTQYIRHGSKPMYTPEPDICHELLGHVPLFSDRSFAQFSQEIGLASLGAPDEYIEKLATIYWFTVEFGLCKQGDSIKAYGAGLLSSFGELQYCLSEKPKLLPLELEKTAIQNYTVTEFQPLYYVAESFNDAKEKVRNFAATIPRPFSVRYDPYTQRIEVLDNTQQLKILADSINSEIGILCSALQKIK

[2] = molecular target: T1, Phenylalanine-4-hydroxylase; test: Inhibitory concentration against human phenylalanine hydroxylase

Structure (SMILES): CC(O)C(O)C1CNc2c(nc(N)[nH]c2=O)N1 (configuration not stated)
- Ki [1]: 7 µM
- IC50 [2]: 1 µM
